# Data as given in publication PMC12441774, “Proteolytic stabilization of a spider venom peptide results in an orally active bioinsecticide” (Pest Management Science, 2025).
# Bridges are numbered along the chain shown (N, C = ends). Where no end group is shown, it is not given here.
# What was measured:
# [1] = Gut enzyme digestion, stated jointly for three lepidopteran gut extracts; format: in vitro ADME, H. zea, S. frugiperda, T. ni; details: 10‐fold diluted gut extract, single exponential decay, followed up to 21 h
# Experimental: (§1) Larvae of H. zea, Spodoptera frugiperda Smith and Abbot, 1797, and Trichoplusia ni Hubner, 1802 were purchased from Benzon Research and reared to fifth instar on general purpose lepidopteran diet. Manduca sexta L. were purchased from Carolina Biological Supply (Burlington, NC) and reared to fifth instar on the supplied diet. Larvae were anesthetized on ice for 30 min, pinned on a dissection plate, and opened laterally with microdissection scissors. The foregut, midgut and hindgut were excised and washed using sterile water to remove any excess hemolymph and then transferred into a chilled 2‐mL microcentrifuge tube. The extracts were spun in a microcentrifuge at 10000 g to pellet the solids. The liquid fractions were carefully removed, sterile filtered, and stored at −80°C for future use.
# (§2) For gut enzyme digestion studies, gut extract was diluted 10× with the dilution buffer (30 mM Tris–HCl, pH 8.8) and 0.5–1 mg mL^−1 of Ta1b. Samples were taken from the digestion mixture at defined timepoints and mixed with a 1:6 ratio of stop buffer (Tris–HCl pH 1–2) to halt further digest of the peptide. Samples were sterile filtered and analyzed by HPLC to determine peptide integrity and concentration.
# [2] = system: Musca domestica; assay: Insecticidal activity by injection into adult house flies; format: in vivo
# Experimental: Adult house flies (Musca domestica L.) were immobilized with CO2 gas and those with an average weight of 12–18 mg were selected for injection. Purified solutions of Ta1b and variants were diluted in water and injected into the dorsal thorax with a 1‐cc syringe and 30‐gauge needle using a hand microapplicator (Burkard, Rickmansworth, England). Each adult was injected with 0.5 μL of solution with 10 flies per treatment in at least triplicate. Water was used as a negative control. Flies were placed into a container with moist filter paper and scored for mortality 24 h post‐injection. Ten non‐injected flies were placed in a container to assess CO2 mortality. Response curves were fitted with a four‐parameter sigmoidal function (GraphPad Prism, Boston, MA) to determine LD50 values.
# (§3) To compare the potency of Ta1b, we also injected the following active ingredients into M. domestica and H. zea: GS‐ω/κ (Spear, Vestaron), spinosad (Monterey Garden Insect Spray, Monterey), thiamethoxam (Optigard® Flex, Syngenta), and chlorantraniliprole (ALTACOR®, FMC).
# [3] = system: H. zea neonates; assay: Insecticidal activity by foliar spray (lettuce leaf disk feeding); format: in vivo, Helicoverpa zea
# Experimental: Organic romaine lettuce was cut into 30‐mm diameter disks and sterilized with a 140‐ppm bleach solution followed by a triple rinse in water. The lettuce disks were then sprayed on either side using a Potter Tower Sprayer (Burkard, Rickmansworth, England) with insecticidal solutions, allowing them to dry between sprays. Once fully sprayed and dried, disks were placed into an arena, which was a 32‐well rearing tray containing 5 mL of 1% w/v agar. One leaf disk was placed in each well and a single neonate H. zea was applied to each of the 12 leaf discs per treatment with four experimental replicates per treatment. The trays were then placed in a 28° C incubator with a 16:8 h light: dark cycle. Mortality was evaluated 4 days after application.
# [4] = Gut enzyme digestion, H. zea gut extract; format: in vitro ADME, Helicoverpa zea; details: pH 8.8; extract diluted ten-fold, single exponential decay fit, HPLC; read-out: Degradation half-life in H. zea gut extract
# Experimental: as §1, §2
# [5] = Gut enzyme digestion, M. sexta gut extract; format: in vitro ADME, Manduca sexta; details: M. sexta fifth instar gut extract diluted 10× in 30 mM Tris–HCl pH 8.8, 0.5–1 mg mL^−1 peptide, HPLC, single exponential decay fit
# Experimental: as §1, §2
# [6] = Gut enzyme digestion, S. frugiperda gut extract; format: in vitro ADME, Spodoptera frugiperda; details: pH 8.8; extract diluted ten-fold, single exponential decay fit, HPLC; read-out: Degradation half-life in S. frugiperda gut extract
# Experimental: as §1, §2
# [7] = Gut enzyme digestion, T. ni gut extract; format: in vitro ADME, Trichoplusia ni; details: pH 8.8; extract diluted ten-fold, single exponential decay fit, HPLC; read-out: Degradation half-life in T. ni gut extract
# Experimental: as §1, §2
# [8] = system: Helicoverpa zea; assay: Insecticidal activity by injection into fourth instar larvae; format: in vivo
# Experimental: Helicoverpa zea (Boddie, 1850) larvae were reared from eggs (Benzon, Carlisle, PA) to fourth instar on general purpose lepidopteran diet (F9772, Frontier Agricultural Sciences, Newark, DE). Pre‐weighed larvae immobilized on ice were injected into their penultimate proleg as described for M. domestica with 1 μL solution and eight larvae per treatment in at least triplicate. After injection, larvae were placed in a well of a 32‐well tray filled with 5 mL lepidopteran diet. The trays were then placed in an incubator at 28° C with 16:8 h light: dark cycle and evaluated 24 h after injection for mortality.
# as §3
# [9] = Protease stability, commercial trypsin digestion; format: in vitro ADME, bovine; details: bovine trypsin 1 mg mL^−1 in 50 mM Tris–HCl pH 8.8, 100 mM NaCl; 5 μL added to 200 μL of 10.7 mg mL^−1 peptide; room temperature; HPLC; read-out: Degradation half life, Trypsin
# Experimental: (§4) For commercial enzyme digestion studies, bovine trypsin (Sigma‐Aldrich, St. Louis, MO) was prepared at a concentration of 1 mg mL^−1 in 50 mM Tris–HCl pH 8.8, 100 mM NaCl. Bovine chymotrypsin (Sigma‐Aldrich) was prepared at a concentration of 1 mg ml^−1 in 50 mM MES pH 6.0, 100 mM NaCl. For each digestion condition, 5 μL of trypsin or chymotrypsin solution were added to 200 μL of 10.7 mg mL^−1 peptide and incubated at room temperature. Samples were taken at defined timepoints, sterile filtered, and analyzed immediately by HPLC.
# [10] = target: T1, bovine trypsin (Bos taurus, UniProt P00760); assay: Protease stability, commercial trypsin digestion; format: in vitro ADME; details: pH 8.8, room temperature, HPLC chromatogram
# T1 construct: purchased Sigma-Aldrich
# T1 sequence (P00760 24-246): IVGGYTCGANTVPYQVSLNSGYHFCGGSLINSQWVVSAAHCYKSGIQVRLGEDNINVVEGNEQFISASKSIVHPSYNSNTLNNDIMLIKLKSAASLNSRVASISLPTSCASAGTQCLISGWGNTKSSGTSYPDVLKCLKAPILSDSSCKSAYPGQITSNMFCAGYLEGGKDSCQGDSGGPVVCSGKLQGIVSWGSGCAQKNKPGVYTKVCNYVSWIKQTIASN
# Experimental: as §4
# [11] = Circular dichroism thermal denaturation; format: physicochemical; details: CD ellipticity at 220 nm, 0.4–0.6 mg mL^−1 peptide in 10 mM sodium phosphate pH 7.0, 2°C min^−1 up to 95°C, Boltzmann sigmoidal fit, 3–4 replicates
# Experimental: Thermal denaturation profiles were collected on a Jasco‐J1500 CD spectrophotometer in a 0.2‐cm cuvette at a peptide concentration of 0.4–0.6 mg mL^−1 in 10 mM sodium phosphate, pH 7.0. Ellipticity was monitored at 220 nm every 1°C up to 95°C at a rate of 2°C min^−1. Denaturation curves were fitted with a Boltzmann sigmoidal function (GraphPad Prism) to determine the melting point (T m) for a single replicate. 3–4 replicates were run and the calculated T m values of each variant peptide was tested for a statistically significant difference relative to the rTa1b peptide or Ta1b‐QA commercial peptide, as appropriate, using an unpaired, two‐tailed, heteroscedastic student t's test (Microsoft Excel, Redmond, WA).
# [12] = injection, Supplementary Figure 4
# [13] = injection, Supplementary Table 1
sequence,measurement,setting,value
"EPDEICRARMTNKEFTYKSNVCNNCGDQVAACEAECFRNDVYTACHEAQKG (disulfide 6-36, 22-32, 25-45) [Ta1b]","Degradation half‐lives in gut extracts from H. zea, S. frugiperda, and T. ni",[1],0.5 to 2 h
same,"Insecticidal LD50, injection, M. domestica (95% CI)","[2]; adult house flies 12–18 mg, 0.5 μL into dorsal thorax, mortality 24 h post‐injection, 10 flies per treatment, at least triplicate, four‐parameter sigmoidal fit",0.27 (0.23–0.32) nmol g^−1
same,LD50 against house flies,[2]; [12],310 pmol/g
same,Housefly LD50 (95%CI),[2]; [13],0.27 (0.23-0.32) pmol/g
same,"Day 4 mortality of H. zea on treated lettuce leaves, peptide alone","[3]; 100 μg cm^−2, neonates, compared to untreated",no activity
same,"Day 4 mortality of H. zea on treated lettuce leaves, peptide in combination with Btk","[3]; 100 μg cm^−2 peptide with sublethal Btk 0.17 μg cm^−2, neonates",no activity
same,half-life,[4],118 min
same,"Degradation half life, Gut extract",[5],under 2 min
same,half-life,"[5]; read-out: Degradation half life, Gut extract",1.4 min
same,half-life,[6],26.4 min
same,half-life,[7],38.1 min
same,"Insecticidal LD50, injection, H. zea (95% CI)","[8]; fourth instar larvae, 1 μL into penultimate proleg, mortality 24 h after injection, eight larvae per treatment, at least triplicate",2.4 (1.7–3.4) nmol g^−1
same,LD50 against H. zea,[8]; [12],2560 pmol/g
same,H. zea LD50 (95%CI),[8]; [13],2.4 (1.7-3.4) pmol/g
same,half-life at 10.4 mg mL^-1,[9],288 min
same,Digestion by bovine trypsin (HPLC),[10],resulted in digestion of the peptide
same,Melting temperature Tm (± SEM),[11],73.7 ± 0.4 °C
